Experiment [1] has as its system sternomandibularis beef muscles. In words: pH of pre-rigor injected sectioned muscle. The note with it: injection 10% of muscle weight, 200 mM (glucose, calcium chloride 300 mM). On the procedure: (§1) Pre-rigor beef muscle was sectioned and the sections were injected at approximately 1 hour post-mortem with a volume of treatment solution equal to 10% of the muscle weight. Objective color measurements were taken on pieces of each muscle section and the pieces were then frozen, powdered and stored at −80° C. for up to 10 days before testing pH and analyzing oxidation-reduction potential. Shear force was evaluated as described immediately above. Solutions used in this procedure were as follows: sodium citrate (200 mM), sodium acetate (200 mM), glucose (300 mM), calcium citrate (200 mM), calcium chloride (300 mM), injection with water, and no injection (control). The calcium citrate solution was prepared as a suspension using 0.25% carrageenan and 200 mM calcium citrate due to its insolubility in water. However, use of calcium citrate can be optimized by increasing solubility by means known in the art.

Experiment [2] has the same test system. The experiment is described as follows: Shear force of pre-rigor injected sectioned muscle. The note with it: 200 mM (glucose, calcium chloride 300 mM). The procedure:
Pre-rigor beef muscle was sectioned into 100 g. samples at approximately 3 hours post-mortem. The pieces were injected with 10 mL of treatment solution followed by marination in the solution for 24 hours at 2° C. before testing pH and recording visual color of the muscle sections. For evaluation of shear force, samples were thawed, cooked, sliced (approximately 6 mm by 6 mm) and then cooled before readings were taken. The solutions used for this procedure were as described above for homogenized muscle.
as §1

Experiment [3] concerns semimembranosus beef muscles. The experiment is described as follows: Muscle pH, pre-rigor injection of whole muscle. The note with it: for pH, 0 h: 0 h (before injection); for pH, 24 h / pH, 72 h: 200 mM, calcium chloride 300 mM. On the procedure: (§2) Experiment were conducted to test the effects of pre-rigor injection of several compounds. Effects of these compounds on pH, color, tenderness and other related traits of low-value beef cuts were investigated. Ten steers (22 to 24 mo of age, 515 to 676 kg live weight) were slaughtered according to current industry procedures. Pre-rigor semimembranosus (from the round), triceps brachii and supraspinatus muscles (from the chuck) were excised, after evisceration (approximately 1 hour post-mortem), from both sides of the carcass. Muscle sections were randomly assigned to the treatments: sodium citrate (NaC; 200 mM), sodium fluoride (NaF; 200 mM), sodium acetate (NaA; 200 mM), and calcium chloride (CaCl2; 300 mM). The control samples remained on the carcass at 2° C. for 24 hours to simulate commercial conditions. Following a cooling, control muscles were removed from each carcass (4 replicates), vacuum packaged and transferred to the holding cooler with the other cuts at 2° C. Calcium chloride treatment was included to be compared with the other treatments.
(§3) At 2 hours post-mortem, each muscle was injected with a volume equal to 8% of the muscle weight using a four-needle hand injector. The temperature of solutions were 4° C. Each muscle was individually treated (2% of solution was added to give a total of 10% of muscle weight) and tumbled in a 75-pound capacity tumbler (Röschermatic, Oshabrück, Germany) for 30 min to insure uniform distribution of the solution.
(§4) Samples of each muscle (approximately 100 g) were taken at 0 hour (before injection), 24, and 72 hours after injection for determination of pH, oxidation-reduction potential, glycogen content, R-values, NAD, and NADH. The samples were then immediately frozen in liquid nitrogen and stored at −80° C. until they were powdered and analyzed. Fresh muscle samples (approximately 20 g) were taken at 72 hours after injection and assayed immediately for water holding capacity and sarcomere length.
(§5) Duplicate pre-rigor samples (5 g) were weighed from powdered sample and homogenized (Polytron, Brinkman Instruments, New York, N.Y.) in 50 mL of 5 mM iodoacetic acid, 150 mM potassium chloride (pH 7.0, 24° C.) to stop glycolysis (Ahn et al., 1992). The pH of the suspension was measured with a general purpose electrode (Corning Glass Works, Corning, N.Y.) attached to an Orion Model SA 720 pH meter (Orion Research, Inc., Boston, Mass.). Post-rigor muscle pH was determined by homogenizing 5 g of sample in 50 mL of deionized water (Winger et al., 1979).

The subject of experiment [4] is supraspinatus beef muscles. In words: Muscle pH, pre-rigor injection of whole muscle. The note with it: for pH, 0 h: 0 h (before injection); for pH, 24 h / pH, 72 h: 200 mM, calcium chloride 300 mM. On the procedure:
as §2, §3, §4, §5

Experiment [5] has as its system triceps brachii beef muscles. The experiment is described as follows: Muscle pH, pre-rigor injection of whole muscle. The note with it: 200 mM, calcium chloride 300 mM; for pH, 0 h: 0 h (before injection); for pH, 24 h: 24 h after injection; for pH, 72 h: 72 h after injection. The procedure:
as §2, §3, §4, §5

Experiment [6] deals with semimembranosus beef muscles. The experiment is described as follows: Glycogen content, pre-rigor injection of whole muscle. The note with it: for Glycogen, 0 h: 0 h (before injection); for Glycogen, 24 h / Glycogen, 72 h: 200 mM, calcium chloride 300 mM. On the procedure:
as §2, §3, §4
(§6) Glycogen extraction was performed in duplicate with 3 g of frozen-powdered muscle sample, which was homogenized with 0.6 N perchloric acid. Amylo-α-1,4-α-1,6- glucosidase from Aspergillus niger (No. A3514. Sigma Chemical, St. Louis, Mo.) was used for the breakdown of the glycogen molecules to free glucose following the method described by Roehrig and Allred (1974). Homogenate was incubated for 2 hours at 37° C., then 100 μL of 3 N perchloric acid was added to precipitate the proteins. After centrifugation, the supernatant was stored at 0-4° C., until analyzed, which was within 2 weeks.
(§7) The assay for glucose was run as described by Dalrymple and Hamm (1973) and Roehrig and Allred (1974), using glucose-6-phosphate dehydrogenase (No. G8878. Sigma Chemical, St. Louis, Mo.) and hexokinase (No. H5500. Sigma Chemical, St. Louis, Mo.). Briefly, the method involves an exoglucosidase, Amylogucosidase, from Aspergillus niger which hydrolyses the -α-D-(1-4) and -α-D-(1-6)-linkages of glycogen. The glucose formed is specifically determined with hexokinase and glucose-6-phosphate dehydrogenase. The glucose liberated after hydrolysis of glycogen is proportional to the increase of absorbance measured at 340 nm. Fifty μL of sample was incubated with 1 mL ATP, NADP, Glucose-6-phosphate dehydrogenase buffer and 5 μL hexokinase at 37° C. for 15 min. Absorbance was measured at 340 nm wavelength, light path=1 cm. The muscle glycogen content was calculated with the following formula: Glycogen (μmol glucose/g wet muscle weight)=111.882×absorbance. 111.882 is the dilution factor.

Experiment [7] has as its system supraspinatus beef muscles. Described as above. The note with it: for Glycogen, 0 h: 0 h (before injection); for Glycogen, 24 h / Glycogen, 72 h: 200 mM, calcium chloride 300 mM. The procedure: as §2, §3, §4, §6, §7
In experiment [8] the test system is triceps brachii beef muscles. The experiment is described as above. As to conditions: 200 mM, calcium chloride 300 mM; for Glycogen, 0 h: 0 h (before injection). On the procedure:
as §2, §3, §4, §6, §7

Experiment [9] deals with semimembranosus beef muscles. In words: Warner-Bratzler shear force, pre-rigor injection of whole muscle. As to conditions: 200 mM, calcium chloride 300 mM; for Shear force, 3 d: 3 d postmortem; for Shear force, 7 d: 7 d postmortem; for Shear force, 14 d: 14 d postmortem. The procedure: as §2, §3
(§8) Tenderness of samples was evaluated by measuring Warner-Bratzler shear force. Steaks (2.54-cm thick) from the middle of each muscle were cut and frozen at 3, 7 and 14 days postmortem. Frozen steaks (2.54 cm thick) were thawed at 4° C. for 24 hours and cooked on Farberware Open Hearth Broilers (Model 350A Walter Kidde, Bronx, N.Y.) to an internal temperature of 40° C., turned, and cooked to a final internal temperature of 70° C. (AMSA, 1995). Temperature was monitored using an OMEGA thermocouple thermometer type T (Omega Engineering, Inc., Stamford, Conn.) inserted into the geometric center of a steak. The cooked steaks were chilled 2 hours at 2° C., and then 8 cores (1.27-cm diameter) were removed parallel to the muscle fiber orientation. Cores were sheared once each on an Instron Universal Testing Machine model 55R1123 (Instron, Canton, Mass.) with a Warner-Braztler attachment. The Instron was set up with a 500 kg load cell, full scale load=1 (0-10 kg), and crosshead speed=250 mm/mim.

The test system of experiment [10] is supraspinatus beef muscles. The description is as above. As to conditions: 200 mM; for Shear force, 3 d: 3 d postmortem; for Shear force, 3 d / Shear force, 7 d: calcium chloride 300 mM; for Shear force, 7 d: 7 d postmortem; for reduced shear force compared with controls: supraspinatus, 3 days post-mortem, CaCl2 300 mM. The procedure: as §2, §3, §8
Experiment [11] concerns triceps brachii beef muscles. The experiment is described as above. As to conditions: 200 mM, calcium chloride 300 mM; for Shear force, 3 d: 3 d postmortem; for Shear force, 7 d: 7 d postmortem; for Shear force, 14 d: 14 d postmortem. On the procedure:
as §2, §3, §8

Marks after values point to notes of the source that are not given here.

From patent publication US20020054941A1, “Methods and compositions to enhance tenderness and value of meat” (The Board of Regents of the University of Nebraska, priority 2000, published 2002) come the findings set out here.

For `[Ca+2].[Cl-].[Cl-]` [Calcium chloride, calcium chloride, reference compound], in experiment [1], the “PH (0 h)” value came to 6.77 and the “pH, 72 h” value was 5.88^d. In addition, in experiment [2], the “Shear force, kg (72 h)” value is on record as 6.61^a kg. Moreover, in experiment [3], the “pH, 0 h” value was determined as 6.76; the “pH, 24 h” value is given as 5.77^b; the “pH, 72 h” value is listed as 5.60^c. Moreover, in experiment [4], the “pH, 0 h” value amounted to 6.75; the “pH, 24 h” value is on record as 5.88^c; the “pH, 72 h” value is recorded as 5.54^c. Also, in experiment [5], the “pH, 0 h” value came out at 6.77; the “pH, 24 h” value was 5.84^b; the “pH, 72 h” value is 5.67^b. For the same compound, in experiment [6], the “Glycogen, 0 h” value was 58.18 μmol/g muscle; the “Glycogen, 24 h” value is 45.90^ab μmol/g muscle; the “Glycogen, 72 h” value was 37.10^ab μmol/g muscle. In experiment [7], the “Glycogen, 0 h” value amounted to 37.98 μmol/g muscle; the “Glycogen, 24 h” value is on record as 26.75 μmol/g muscle; the “Glycogen, 72 h” value is listed as 19.31^b μmol/g muscle. Moreover, in experiment [8], the “Glycogen, 0 h” value is 39.14 μmol/g muscle; the “Glycogen, 24 h” value is 28.76^b μmol/g muscle; the “Glycogen, 72 h” value is 25.01^bc μmol/g muscle. Besides, in experiment [9], the “Shear force, 3 d” value was determined as 6.28 kg; the “Shear force, 7 d” value was found to be 5.36 kg; the “Shear force, 14 d” value was found to be 4.03 kg. Moreover, in experiment [10], the “Shear force, 3 d” value is reported as 5.55^c kg; the “Shear force, 7 d” value is 4.84^b kg; the “reduced shear force compared with controls” value is on record as 1.73 kg. Also, in experiment [11], the “Shear force, 3 d” value is 4.95^bc kg; the “Shear force, 7 d” value is given as 4.87^b kg; the “Shear force, 14 d” value turned out to be 4.07 kg.
On to `O=C([O-])CC(O)(CC(=O)[O-])C(=O)[O-].O=C([O-])CC(O)(CC(=O)[O-])C(=O)[O-].[Ca+2].[Ca+2].[Ca+2]` [Calcium citrate, calcium citrate], for which, in experiment [1], the “PH (0 h)” value came out at 6.92 and the “pH, 72 h” value is 5.82^cd. Moreover, in [2], the “Shear force, kg (72 h)” value is recorded as 7.57^a kg.
For `[F-].[Na+]` [Sodium fluoride, sodium fluoride, reference compound], in experiment [3], the “pH, 0 h” value stood at 6.70; the “pH, 24 h” value was 6.08^a; the “pH, 72 h” value is given as 5.97^a. In experiment [4], the “pH, 0 h” value is 6.72; the “pH, 24 h” value is 6.23^a; the “pH, 72 h” value was 6.09^a. For the same compound, in experiment [5], the “pH, 0 h” value is 6.76; the “pH, 24 h” value is given as 6.07^a; the “pH, 72 h” value is 5.95^a. In addition, in [6], the “Glycogen, 0 h” value is 62.90 μmol/g muscle; the “Glycogen, 24 h” value is on record as 54.03^b μmol/g muscle; the “Glycogen, 72 h” value is listed as 43.77^a μmol/g muscle. In experiment [7], the “Glycogen, 0 h” value was 45.49 μmol/g muscle; the “Glycogen, 24 h” value was 37.37 μmol/g muscle; the “Glycogen, 72 h” value is on record as 30.46^a μmol/g muscle. In [8], the “Glycogen, 0 h” value is recorded as 48.22 μmol/g muscle; the “Glycogen, 24 h” value is 43.98^a μmol/g muscle; the “Glycogen, 72 h” value is 37.30^a μmol/g muscle. Further, in experiment [9], the “Shear force, 3 d” value is listed as 6.02 kg; the “Shear force, 7 d” value is listed as 5.56 kg; the “Shear force, 14 d” value is listed as 4.60 kg. Further, in experiment [10], the “Shear force, 3 d” value is 6.13^bc kg; the “Shear force, 7 d” value is 4.80^b kg; the “reduced shear force compared with controls” value is listed as 1.15 kg. In [11], the “Shear force, 3 d” value is recorded as 5.18^bc kg; the “Shear force, 7 d” value was 4.82^b kg; the “Shear force, 14 d” value came out at 4.09 kg.
